Measured values: patent US7807617B2, “Peptide inhibitors of toxins derived from LL-37” (priority 2003, dated 2010)
Where “and” joins values, the source holds several entries; their conditions need not be identical. Equal values may be shown once.

Assays:
[1] = system: peripheral blood mononuclear cells (PBMC); assay: T cell proliferation ([3H] thymidine incorporation); format: cell-based; settings: fraction of positive stimulation indices (positive: >2), 10 μg/ml, 5 days
Description: (§1) The compounds prepared according to example 1 were tested for their therapeutically undesirable immunogenic activity by using Elispot, T-cell proliferation, ERK-activation, and neutrophil chemotaxis assays. The Elispot assay is applicable to determine effects of drugs, chemicals or other compounds on cytokine secretion in vitro, thereby providing data on their putative modulatory effects on immune function in vivo. The results of the assay are given as fraction of positive responses to IFN-gamma. […] Cytokines are direct mediators of inflammation and influence the progress and direction of many immunological reactions. Perturbation of the balance in cytokine production is widely recognized as a critical factor in several disease states. This balance is already disturbed in the case of conditions such as otitis media with effusion and sinusitis. T cell proliferation is also not favorable in this situation, because this will also stimulate the immune response that is already out of control.
(§2) For T cell proliferation, 150,000 peripheral blood mononuclear cells (PBMC) were cultured in the absence or presence of 10 μg/ml of the compounds for 5 days in 96 well round bottom plates (Costar Inc. Cambridge, Mass.) in a final volume of 150 μl IMDM complete. As a positive control, PBMC were cultured in the presence of 25 U/ml recombinant IL-2. During the final 20 hours of culture, PBMC were pulsed with [3H] thymidine (0.5 microCi/well), after which ^3H-incorporation was measured by liquid scintillation counting. For detection of the T cell cytokines IFN and IL-10 by Elispot analysis, 1.5×10^6 PBMC were cultured in 0.5 ml IMDM complete in the absence or presence of various concentrations of synthetic peptide. As a positive control PBMC were stimulated by 10 μg/ml poke weed mitogen (PWM). After 48 hours of culture, PBMC were harvested by gently rinsing the wells with warm IMDM to collect non-adherent cells, which were washed in a large volume of IMDM. PBMC were subsequently plated on antibody-precoated ELISA plates and cultured for 5 hours in IMDM supplemented with 2% pooled human AB serum at 37° C. 5% CO2, after which the plates were developed according to the manufacturer's protocol (U-CyTech, Utrecht, The Netherlands). Spots were counted on an Olympus microscope and analyzed with Olympus Micro Image 4.0 software (Paes Nederland, Zoeterwoude, The Netherlands). The final results are expressed as fraction of positive stimulation indices (positiv: >2).

[2] = system: neutrophils isolated from peripheral blood; assay: Neutrophil chemotaxis, modified Boyden chamber; format: cell-based; settings: percentage neutrophils on the membrane compared to positive control 10^-8 M FMLP; 90 minutes
Description: Neutrophils chemotaxis was measured with neutrophils isolated from peripheral blood using Percoll density centrifugation (density: 1.082 g/ml). The cells were resuspended at a concentration of 2.5×10^6 cells/ml in chemotaxis medium (20 mM N-2-hydroxyethylpiperazine-N′-2-ethanesulfonic acid (HEPES buffer) HEPES, 132 mM NaCl, 6 mM KCl, 1.2 mM KH2PO4, 1 mM MgSO4, 5.5 mM glucose, 0.1 mM CaCl2 and 0.5% (wt/vol) human serum albumin [Central Laboratory of the Netherlands Red Cross Blood Transfusion Service (CLB), Amsterdam, The Netherlands] diluted 1:1 with serum-free RPMI. The chemotactic activity of the compounds was assessed using a modified Boyden Camber technique. Briefly, 26 μl stimuli diluted in HEPES buffer was added to the wells of the lower compartment, and 50 μl of neutrophil suspension (2.5×10^6 cells/ml) was added to the upper compartment. The compartments were separated by two filters: a lower filter with a pore size of 0.45 μm (Millipore Products, Bedford, Mass.) and an upper filter with a pore size of 8 μm (Sartorius Filter, San Francisco, Calif.). After incubation for 90 minutes at 37° C., the upper filters were removed, fixed in ethanol-butanol (80:20, vol/vol), and stained with Weigert solution. To determine neutrophil chemotactic activity, neutrophils were counted in six random high-power fields (×400), and the percentage neutrophils on the membrane as compared to the positive control (10^-8 M N-formylmethionyl-leucyl-phenylalanine (FMLP, Sigma) was calculated.

[3] = system: bacterial toxin LPS; assay: LPS neutralization, whole blood (WB) assay; format: cell-based; settings: ±SD
Description: (§3) Compounds prepared according to example 1 were tested for their capability to neutralize the bacterial toxin LPS with a limulus amoebocyte lysate (LAL) assay and with a whole blood (WB) assay. LTA neutralization was also measured with a whole blood assay. Peptide LL-37 was used as a positive control. The peptide concentration whereby 50% LPS is neutralized (50% inhibition) was used as a measure of the peptide's activity. These concentration values were as in table 1. The differences between the compounds within each assay were not statistically significant.

[4] = system: lipoteichoic acid (LTA); assay: LTA neutralization, whole blood (WB) assay; format: cell-based; settings: ±SD, n = 3
Description: as §3

[5] = system: peripheral blood mononuclear cells (PBMC); assay: γ-IFN Elispot assay (cytokine secretion); format: cell-based; settings: for γ-IFN Elispot: fraction of positive stimulation indices (positive: >2), PBMC, 48 hours of culture
Description: as §1, §2

[6] = system: bacterial toxin LPS; assay: LPS neutralization, limulus amoebocyte lysate (LAL) assay; format: biochemical; settings: ±SD; for 50%-LPS inhibition, Average: average of LAL-assay and WB-assay
Description: as §3

[7] = Acute eye irritation/corrosion study; format: in vivo, rabbit; settings: 0.1 ml peptide solution 2 mg/ml (pH7.5) instilled into one eye
Description: (§4) Compound P60.4Ac was prepared according to example 1 and tested for its tolerability in vivo. More specifically, its potential for causing skin and eye irritation was evaluated in rabbits, whereas its ototoxicity was studied in a guinea pig model. Furthermore, its systemic toxicity was assessed after intravenous administration.
(§5) For the skin and eye irritation tests, three rabbits were exposed to 0.5 ml phosphate buffered peptide solution (2 mg/ml), applied onto clipped skin for 4 hours using a semi-occlusive dressing. Observations were made 1, 24, 48, and 72 hours after exposure. Single samples of 0.1 ml of phosphate buffered (pH7.5) peptide solution (2 mg/ml) were instilled into one eye of each of three rabbits to perform an acute eye irritation/corrosion study. Observations were made 1, 24, 48, and 72 hours after instillation.

[8] = Systemic single and repeated dose toxicity, intravenous; format: in vivo, rat; settings: rats
Description: as §4
The systemic toxicity of P60.4Ac was assessed in a single and repeated dose toxicity study in rats. The peptide was administered daily intravenously in escalating doses. In this phase, the Maximum Tolerated Dose (MTD) was established. Repeated dose toxicity was also studied in the MTD phase. In the dose escalation phase, 9 rats were divided in three groups and received 0.4, 2 or 8 mg/kg/day for two days. Clinical signs were recorded twice daily on days of dosing and one day after dosing, body weights were recorded prior to the first dose and one day after dosing. In the MTD phase, 5 female and 5 male rats received 8 mg/kg/day for 5 following days. Clinical signs were recorded twice daily on days of dosing, body weight on day 1 and 6. Clinical laboratory investigations were performed prior to necropsy. Macroscopy was performed at termination of the MTD phase.

[9] = Ototoxicity, auditory brainstem response (ABR) after round window membrane application; format: in vivo, guinea pig; settings: for Δ presurgery (ABR threshold change) / ABR treshold (dB): cisplatin 0.66 mg/ml in PBS, P60.4Ac 2 mg/ml in phosphate buffer; for ABR treshold (dB): round window membrane
Description: For evaluating the ototoxicity, nine healthy male albino guinea pigs (500-1200 g), free of external ear pathology, were used. Animals were anesthetized with intraperitoneal injections of ketamine 40 mg/kg and rompun 10 mg/kg. After control auditory testing was performed, the auditory bullae were surgically opened to apply a small piece of spongostan to the round window membrane (RWM) and various solutions (approximately 10 μL) were added on the spongostan. The skin was sutured closed and follow-up auditory testing was performed.
The guinea pigs were divided into three groups, each consisting of two animals to be treated and one control animal. Test and control formulations were administered onto the RWM of the right ears, while the left ears remained untreated. […] Group 2 received the peptide (2 mg/ml) in phosphate buffer (pH7.5) and group 3 received the peptide (2 mg/ml) in formulation solution comprising 7% macrogol 10,000 in isotonic sodium chloride solution preserved with 0.02% benzalkonium chloride and 0.1% Na2EDTA, buffered at pH 5.5 with phosphate.
Auditory brainstem response (ABR) was performed prior to drug administration and directly after surgery and 3, 7, 14 and 22 days later, using a computer-based signal averaging system (Tucker-Davis Technology, Alucha, Fla., USA). Guinea pigs were anesthetized and an insert earphone was placed into the external ear canal. […] Ground electrodes were placed over the neck muscles. ABRs were recorded in an electrically shielded, double-walled, radio-frequency-shielded sound chambre in response to 10 ms tone bursts at 1 kHz. Stimulus intensities were measured and expressed as dB. ABR treshold was defined as the lowest intensity capable of eliciting a replicable, visually detectable response. The post-treatment ABR tresholds were compared to pre-treatment ABR tresholds.

[10] = Skin irritation test; format: in vivo, rabbit; settings: 0.5 ml peptide solution 2 mg/ml on clipped skin for 4 hours, semi-occlusive; observed 1-72 hours
Description: as §4, §5

[11] = i.v. 0.4, 2 or 8 mg/kg/day for two days

IGKEFKRIVQRIKDFLRNLVPRTE [Compound P60]
T cell proliferation [1]: 0/8 | Chemotaxis (%) [2]: 76 ± 39% | 50%-LPS inhibition, WB-assay [3]: 1.4 ± 0.1 µg/mL | 50%-LTA inh. [4]: 2.1 ± 0.7 µg/mL | γ-IFN Elispot [5]: 1/8 | 50%-LPS inhibition, LAL-assay [6]: 1.5 ± 0.5 µg/mL | 50%-LPS inhibition, Average [6]: 1.5 ± 0.3 µg/mL

Ac-IGKEFKRIVERIKRFLRELVRPLR-NH2 [Compound P60.4Ac]
redness of the conjunctivae, time to complete resolution after instillation [7]: ≤ 24 h | clinical signs, body weight, hematology, clinical biochemistry and macroscopic examination, MTD phase ([8]; i.v. 8 mg/kg/day for 5 days): no clear peptide related findings | mortality, MTD phase ([8]; i.v. 8 mg/kg/day for 5 days): no mortality occurred | clinical signs and body weight, dose escalation phase [8, 11]: no clear deviations | mortality, dose escalation phase [8, 11]: no mortality occurred | Δ presurgery (ABR threshold change) ([9]; 3 days): −2 dB | ABR treshold (dB) ([9]; 3 days): 70 dB | Δ presurgery (ABR threshold change) ([9]; 7 days): 0 dB | ABR treshold (dB) ([9]; 7 days): 72 dB | Δ presurgery (ABR threshold change) ([9]; 14 days): −12 dB | ABR treshold (dB) ([9]; 14 days): 60 dB | Δ presurgery (ABR threshold change) ([9]; 22 days after surgery): −7 dB | ABR treshold (dB) ([9]; 22 days): 65 dB | ABR threshold change ([9]; peptide 2 mg/ml in formulation solution (7% macrogol 10,000, isotonic NaCl, benzalkonium chloride, Na2EDTA, pH 5.5), two animals): 2 dB and 1 dB | Δ presurgery (ABR threshold change) ([9]; postsurgery): −2 dB | ABR treshold (dB) ([9]; postsurgery, 1 kHz, one animal per column): 70 dB | skin irritation [10]: no skin irritation was detectable

LL-37 [reference compound]
T cell proliferation [1]: 4/8 | Chemotaxis (%) [2]: 84 ± 17% | 50%-LPS inhibition, WB-assay [3]: 1.2 ± 0.2 µg/mL | 50%-LTA inh. [4]: 1.6 ± 0.5 µg/mL | γ-IFN Elispot [5]: 4/8 | 50%-LPS inhibition, LAL-assay [6]: 1.3 ± 0.2 µg/mL | 50%-LPS inhibition, Average [6]: 1.3 ± 0.2 µg/mL

IGKEFKRIVQRIKDFLRNLVPRTE [Compound P60.Ac]
T cell proliferation [1]: 0/8 | Chemotaxis (%) [2]: 61 ± 36% | 50%-LPS inhibition, WB-assay [3]: 2.4 ± 0.5 µg/mL | 50%-LTA inh. [4]: 2.1 ± 0.1 µg/mL | γ-IFN Elispot [5]: 3/8 | 50%-LPS inhibition, LAL-assay [6]: 1.8 ± 0.8 µg/mL | 50%-LPS inhibition, Average [6]: 2.0 ± 0.8 µg/mL

IGKEFKRIVERIKRFLRELVRPLR [Compound P60.4]
T cell proliferation [1]: 0/8 | Chemotaxis (%) [2]: 0 ± 0% | 50%-LPS inhibition, WB-assay [3]: 2.1 ± 0.6 µg/mL | 50%-LTA inh. [4]: 2.0 ± 1.3 µg/mL | immune response (summary of table 2) ([5]; compared with natural peptide LL-37): very low immune response | γ-IFN Elispot [5]: 3/8 | 50%-LPS inhibition, LAL-assay [6]: 1.7 ± 0.6 µg/mL | 50%-LPS inhibition, Average [6]: 1.8 ± 0.6 µg/mL
